Source: patent publication EP1021088B1, “FUNGICIDE MIXTURES BASED ON FLUQUINCONAZOLE” (Aventis CropScience UK Limited, priority 1997, dated 1999)

Columns and labels:
[1] = tested on: Erysiphe graminis (powdery mildew); experiment: Control of powdery mildew on wheat plants, spraying one day after inoculation; assay type: in vivo; conditions: sprayed one day after inoculation
Experimental: (§1) Wheat plants were inoculated with Erysiphe graminis (powdery mildew). Two days after inoculation, they were sprayed with fluquinconazole, obtained by diluting with water to the desired concentration, a suspension concentrate comprising 10% by weight active ingredient, or azoxystrobin obtained by diluting with water to the desired concentration, the commercial product sold under the trade name "Amistar", or mixtures of these. One week after inoculation, the wheat was assessed for control of disease. To indicate the existence of synergism between the active components the results were treated in the manner described by Colby S.R., "Calculating Synergistic and Antagonistic Responses of Herbicide Combinations" in Weeds 1967 15, 20-22). In this method the "expected" percent control of growth, E, of the combination compared with untreated control is given by the equation E = A + F -(AF)/(100) [formula] where A is the % control by azoxystrobin used alone at a given concentration and F is the % control by fluquinconazole, used alone at a given concentration. […] In the table, component "az" is azoxystrobin and "fq" is fluquinconazole. Table 1 In a similar manner, Example 1 was repeated with spraying one day after inoculation. The results are as follows Table 2

[2] = tested on: Erysiphe graminis (powdery mildew); experiment: Control of powdery mildew on wheat plants, spraying two days after inoculation; assay type: in vivo; conditions: sprayed two days after inoculation, assessed one week after inoculation
Experimental: as §1, with “fluquinconazole.” for “fluquinconazole. Table 1 In a similar manner, Example 1 was repeated with spraying one day after inoculation. The results are as follows Table 2”

| SMILES | % Control Observed ([1]; fq 15.25 g cpd/ha) [%] | % Control Observed ([1]; fq 31.25 g cpd/ha) [%] | % Control Observed ([2]; fq 15.25 g cpd/ha) [%] | % Control Observed ([2]; fq 31.25 g cpd/ha) [%] | % Control Observed ([1]; az 31.25 g cpd/ha) [%] | % Control Observed ([1]; az 62.5 g cpd/ha) [%] | % Control Observed ([2]; az 31.25 g cpd/ha) [%] | % Control Observed ([2]; az 62.5 g cpd/ha) [%] | % Control Observed ([2]; az 125 g cpd/ha) [%] | % Control Observed ([2]; az 187.5 g cpd/ha) [%] |
| --- | --- | --- | --- | --- | --- | --- | --- | --- | --- | --- |
| O=c1c2cc(F)ccc2nc(-n2cncn2)n1-c1ccc(Cl)cc1Cl [fq, 3-(2,4-dichlorophenyl)-6-fluoro-2-((1H)-1,2,4-triazol-1-yl)-4(3H)-quinazolinone] | 12 | 68 | 24 | 70 | – | – | – | – | – | – |
| CO/C=C(/C(=O)OC)c1ccccc1Oc1cc(Oc2ccccc2C#N)ncn1 [az, methyl (E)-2-{2-[6-(2-cyanophenoxy)pyrimidin-4-yloxy]phenyl}-3-methoxyacrylate] | – | – | – | – | 0 | 0 | 10 | 12 | 42 | 62 |
